The target in test [1] is T1, lysozyme (Gallus gallus, UniProt P00698). The test can be described thus: Estimation of relative inhibition of lysozyme (Micrococcus lysodeikticus substrate, absorbance at 450 nm). In kind it is biochemical. The note with it: for 1max: ligand concentration at Imax; for Imax: maximum relative inhibition of lysozyme; for IC50: phosphate buffer pH 6.2, 20 C, Micrococcus lysodeikticus substrate, read-out: I50. As to the method: This example describes the estimation of inhibition of lysozyme by monomers Micrococcus lysodeikticus is a substrate for the enzyme lysozyme. Relative binding of monomers and monomers linked to NAG through the spacer arm was estimated by using a procedure reported by Neuberger and Wilson (1967).
T1 sequence (P00698 19-147): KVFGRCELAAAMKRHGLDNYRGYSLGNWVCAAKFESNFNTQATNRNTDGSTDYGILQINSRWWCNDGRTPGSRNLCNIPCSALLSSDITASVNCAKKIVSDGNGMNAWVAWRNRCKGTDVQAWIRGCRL
1 5% w/v stock solutions of monomeric ligands was prepared in […] phosphate buffer pH 6.2 containing 0.01 54 m sodium chloride and 0.008 M sodium azide. One milliliter of stock solution containing different ligand concentration was mixed with 1.6 ml of 78 Jig/ml of Micrococcus lysodeikticus in a 3-ml capacity glass cuvette. The mixture was incubated for 5 minutes at 20 0 C. To this mixture 0.1 ml of lysozyme (27 μg/ml) was added and mixed thoroughly. The relative absorbance at 450 nm (Δ450) was recorded for 30 seconds. A blank reading without the ligand was noted and the change in the absorbance per second was calculated. Then relative inhibition was calculated

Test [2] addresses T1, lysozyme. The experiment in a line: Estimation of binding constant (Kb) by fluorescence spectrophotometric method. The note with it: relative to NAG. As to the method:
Estimation of binding constant (Kb) of monomers containing NAG by fluorescence spectrophotometric method and the enhancement resulting from conjugation with monomers and monomer containing spacer.
Fluorescence spectra of lysozyme were recorded on a Perkin Elmer LS-50 B luminescence spectrophotometer. Excitation frequency was 285 nm, Solutions of lysozyme and N-Acetyl Glucosamine were prepared in 0.066 M phosphate buffer pH 6.2, containing 0.0154 M sodium chloride and 0.008 M sodium azide. 0 1 milliliter of lysozyme 80 μg/ml was mixed with solution containing different ligand concentration in a 2 ml capacity 10 mm square quartz cells maintained at 18 0 C.
Phosphate buffer was added to make the volume to 2 ml. The fluorescence intensities of the solutions were measured, relative to the solutions containing enzymes and buffer mixtures of the identical concentrations reference. […]

As for `C=CC(=O)OC[C@H]1OC(O)[C@H](NC(C)=O)[C@@H](O)[C@@H]1O` (stereo partly shown) [Ac. NAG, Acryloyl N-Acetyl Glacosamine], at lysozyme [1], the “1max” value is 14.81 mM, the Imax is 50.00 and the IC50 is 14.8 mM. Moreover, on lysozyme [2], the “increase in binding constant compared to N-Acetyl Glucosamine” value was 74 times.

As for `CC(=O)N[C@H]1C(O)O[C@H](CO)[C@@H](O)[C@@H]1O` (stereo partly shown) [NAG, N-Acetyl Glucosamine, reference compound], at lysozyme [1], the “1max” value is 92.5 mM, the Imax was 55.29 and the IC50 is 74 mM.

Take “Acryloyl 6-Amino Caproic Acid N-Acetyl Glucosamine [Ac 6ACA.NAG]”: at lysozyme [1], the “1max” value was 0.036 mM, the Imax is reported as 52.5 and the IC50 is 0.035 mM.

Source of the values: US20040192905A1, “Polymerizable monomers and process of preparation thereof” (priority 2003, published 2004).
